The target of assay [1] is VEGFR2 (purified cytoplasmic domain KDR protein) (Homo sapiens (Human), UniProt P35968). In words: VEGFR2 Kinase Assay (biochemical KDR kinase, poly-Glu-Tyr ELISA). The note with it: 2.7 μM ATP, 15 minute incubation at 30° C. How it is done:
VEGFR2 Kinase Assay […] Test compounds were reconstituted in 100% DMSO and added to the reaction to give a final DMSO concentration of 5%. […] Following a 15 minute incubation at 30° C., the reactions were washed 2 mls per well PBS-T. 100 μl of a monoclonal anti-phosphotyrosine antibody-peroxidase conjugate diluted 1:10,000 in PBS-T was added to the wells for 30 minutes. Following a 2 mls per well wash with PBS-Tween-20, 100 μl of 0-Phenylenediamine Dihydrochloride in phosphate-citrate buffer, containing urea hydrogen peroxide, was added to the wells for 7-10 minutes as a colorimetric substrate for the peroxidase. The reaction was terminated by the addition of 100 μl of 2.5N H2SO4 to each well and read using a microplate ELISA reader set at 492 nm. IC50 values for compound inhibition were calculated directly from graphs of optical density (arbitrary units) versus compound concentration following subtraction of blank values.
(An ELISA detects its analyte on a solid surface through an enzyme-linked reagent.)

Assay [2] addresses recombinant human GST-PKR (Homo sapiens (Human), UniProt P19525). In words: PKR KinaseGlo Assay. It counts as biochemical. The note with it: 6.6 uM ATP, 10 minutes at room temperature. How it is done:
Commercially available recombinant human GST-PKR (SignalChem, Canada; 1.5 uM-2 uM stock) is diluted to 500 nM in assay buffer (20 mM Tris-HCl, pH 7.2, 10 mM KCl, 10 mM MgCl2, 10% glycerol). Preactivated PKR is dispensed to 384/96-well black plates at 3.125/12.5 uls/well using the liquid handler Janus. Appropriate dilutions of inhibitors are added to 384/96-well plate followed by 6.6 uM ATP (final) and incubated for 10 minutes at room temperature. The remaining ATP/well is determined by adding 6.25/25 uls/well Kinase-Glo assay mix (Promega) and luminescence is measured on EnVision luminescence plate reader (integration time, 0.2 sec; Perkin-Elmer, Massachusetts, USA). The % inhibition for the compounds is calculated using ATP only (100% inhibition) and PKR+ATP (0% inhibition). […] values are determined by plotting % activity versus inhibitor concentration. Curves are fitted using Activity base XLfit (IDBS, UK) using the formula— • 4 Parameter Logistic Model fit=(A+((B−A)/(1+(10^((C−x)*D))))) inv=(C−(log(((B−A)/(y−A))−1)/D)) res=(y−fit)
Background: In Kinase-Glo more light means more ATP remaining.

The target of assay [3] is PDGFRβ (purified cytoplasmic domain PDGFR-b protein) (Homo sapiens (Human), UniProt P09619). Description: PDGFRβ Kinase Assay (biochemical, poly-Glu-Tyr ELISA). The note with it: 36 μM ATP, 60 minute incubation at 30° C. The procedure:
Biochemical PDGFRβ kinase assays were performed in 96 well microtiter plates that were coated overnight with 75 μg of poly-Glu-Tyr (4:1) in 10 mM Phosphate Buffered Saline (PBS), pH 7.4. The coated plates were washed with 2 mls per well PBS+0.05% Tween-20 (PBS-T), blocked by incubation with PBS containing 1% BSA, then washed with 2 mls per well PBS-T prior to starting the reaction. Reactions were carried out in 100 μL reaction volumes containing 36 μM ATP in kinase buffer (50 mM Hepes buffer pH 7.4, 20 mM MgCl2, 0.1 mM MnCl2 and 0.2 mM Na3VO4). Test compounds were reconstituted in 100% DMSO and added to the reaction to give a final DMSO concentration of 5%. Reactions were initiated by the addition 20 ul per well of kinase buffer containing 200-300 ng purified cytoplasmic domain PDGFR-b protein (Millipore). Following a 60 minute incubation at 30° C., the reactions were washed 2 mls per well PBS-T. 100 μl of a monoclonal anti-phosphotyrosine antibody-peroxidase conjugate diluted 1:10,000 in PBS-T was added to the wells for 30 minutes. Following a 2 mls per well wash with PBS-Tween-20, 100 μl of 0-Phenylenediamine Dihydrochloride in phosphate-citrate buffer, containing urea hydrogen peroxide, was added to the wells for 7-10 minutes as a colorimetric substrate for the peroxidase. The reaction was terminated by the addition of 100 μl of 2.5N H2SO4 to each well and read using a microplate ELISA reader set at 492 nm. IC50 values for compound inhibition were calculated directly from graphs of optical density (arbitrary units) versus compound concentration following subtraction of blank values.

Consider twelve compounds from patent US9296747B1, “Piperidylpyrimidine derivatives as modulators of protein kinase inhibitors and of vascular endothelial growth factor receptor 2” (Allergan, Inc., priority 2014, dated 2016).

pIC50: −log10 of the molar value.

Sequence of PDGFRβ (purified cytoplasmic domain PDGFR-b protein) (P09619 554-1106): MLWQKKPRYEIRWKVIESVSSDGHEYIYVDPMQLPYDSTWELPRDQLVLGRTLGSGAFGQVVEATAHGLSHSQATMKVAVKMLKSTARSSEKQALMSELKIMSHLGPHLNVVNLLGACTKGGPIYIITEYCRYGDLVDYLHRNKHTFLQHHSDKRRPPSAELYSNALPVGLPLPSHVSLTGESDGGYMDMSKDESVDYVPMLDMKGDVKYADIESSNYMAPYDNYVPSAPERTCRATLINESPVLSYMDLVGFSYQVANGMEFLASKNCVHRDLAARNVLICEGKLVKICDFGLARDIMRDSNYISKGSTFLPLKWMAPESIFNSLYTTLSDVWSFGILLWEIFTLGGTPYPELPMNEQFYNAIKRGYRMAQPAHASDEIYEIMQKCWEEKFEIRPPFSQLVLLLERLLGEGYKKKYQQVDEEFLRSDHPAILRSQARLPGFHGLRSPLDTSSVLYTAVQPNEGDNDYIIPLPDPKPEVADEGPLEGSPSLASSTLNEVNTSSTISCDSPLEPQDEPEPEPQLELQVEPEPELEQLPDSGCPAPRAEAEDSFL
Sequence of recombinant human GST-PKR (P19525 whole entry): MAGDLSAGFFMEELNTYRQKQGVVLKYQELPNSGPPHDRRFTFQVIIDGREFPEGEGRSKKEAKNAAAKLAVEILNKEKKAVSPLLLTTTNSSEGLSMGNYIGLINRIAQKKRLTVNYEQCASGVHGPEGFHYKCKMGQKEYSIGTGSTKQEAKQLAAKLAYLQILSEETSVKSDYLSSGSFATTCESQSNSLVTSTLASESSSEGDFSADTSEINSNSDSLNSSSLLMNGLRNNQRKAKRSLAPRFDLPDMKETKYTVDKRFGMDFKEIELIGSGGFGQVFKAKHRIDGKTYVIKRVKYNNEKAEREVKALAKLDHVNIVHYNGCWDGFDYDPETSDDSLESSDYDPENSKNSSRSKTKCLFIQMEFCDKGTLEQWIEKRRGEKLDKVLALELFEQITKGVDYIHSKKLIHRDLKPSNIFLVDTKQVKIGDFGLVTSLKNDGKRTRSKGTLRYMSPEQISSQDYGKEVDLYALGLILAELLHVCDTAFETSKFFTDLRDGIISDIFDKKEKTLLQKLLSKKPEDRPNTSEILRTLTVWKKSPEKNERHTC
Sequence of VEGFR2 (purified cytoplasmic domain KDR protein) (P35968 786-1356): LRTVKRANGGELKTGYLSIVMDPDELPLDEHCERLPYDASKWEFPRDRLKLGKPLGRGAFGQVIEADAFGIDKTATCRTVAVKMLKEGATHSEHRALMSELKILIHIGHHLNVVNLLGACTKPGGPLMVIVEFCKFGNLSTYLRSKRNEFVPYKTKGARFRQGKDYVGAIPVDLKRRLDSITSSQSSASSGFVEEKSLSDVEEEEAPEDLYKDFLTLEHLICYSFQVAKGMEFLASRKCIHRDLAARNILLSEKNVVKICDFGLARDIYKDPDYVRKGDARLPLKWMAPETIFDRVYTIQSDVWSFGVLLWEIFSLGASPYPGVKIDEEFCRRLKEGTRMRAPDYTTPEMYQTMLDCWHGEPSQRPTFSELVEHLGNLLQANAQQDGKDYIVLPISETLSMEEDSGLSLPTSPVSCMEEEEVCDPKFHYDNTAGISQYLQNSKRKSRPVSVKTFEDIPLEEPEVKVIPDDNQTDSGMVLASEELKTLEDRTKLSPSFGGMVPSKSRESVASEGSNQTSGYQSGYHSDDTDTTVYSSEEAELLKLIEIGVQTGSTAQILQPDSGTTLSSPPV

One may read the pIC50 as the negative decadic logarithm of the IC50, by convention in mol/L. As for `O=C(Nc1cccnc1)N1CCc2nc(Nc3ccccc3)ncc2C1` [Example 3, 2-anilino-N-pyridin-3-yl-7,8-dihydropyrido[4,3-d]pyrimidine-6(5H)-carboxamide], the figures for the pIC50 in assay [1] and in assay [2] were less than 5.00 and 6.55, respectively.
Turning to `COc1cc(Nc2ncc3c(n2)CCN(C(=O)c2cccnc2)C3)cc(OC)c1` [Example 17, N-(3,5-dimethoxyphenyl)-6-(pyridin-3-ylcarbonyl)-5,6,7,8-tetrahydropyrido[4,3-d]pyrimidin-2-amine], the pIC50 in assay [2] was 6.89.
Consider `Cn1nccc1Nc1ncc2c(n1)CCN(C(=O)c1cccnc1)C2` [Example 8, N-(1-methyl-1H-pyrazol-5-yl)-6-(pyridin-3-ylcarbonyl)-5,6,7,8-tetrahydropyrido[4,3-d]pyrimidin-2-amine], for which the values for the pIC50 in assay [1] and in assay [3] were 7.80 and 6.89, respectively.
Regarding `COc1cc(Nc2ncc3c(n2)CCN(C(=O)c2cccs2)C3)cc(OC)c1OC` [Example 13, 6-(2-thienylcarbonyl)-N-(3,4,5-trimethoxyphenyl)-5,6,7,8-tetrahydropyrido[4,3-d]pyrimidin-2-amine], in assay [1], the pIC50 is 8.10.
With `COc1ccccc1Nc1ncc2c(n1)CCN(C(=O)c1cccnc1)C2` [Example 7, N-(2-methoxyphenyl)-6-(pyridin-3-ylcarbonyl)-5,6,7,8-tetrahydropyrido[4,3-d]pyrimidin-2-amine], the results for the pIC50 in assay [1] and in assay [3] were 8.00 and 6.61, respectively.
On to `COc1cc(Nc2ncc3c(n2)CCN(C(=O)c2ccccn2)C3)cc(OC)c1OC` [Example 15, 6-(pyridin-2-ylcarbonyl)-N-(3,4,5-trimethoxyphenyl)-5,6,7,8-tetrahydropyrido[4,3-d]pyrimidin-2-amine], for which the pIC50 in assay [1] was 5.73; in assay [2], 5.55.
`COc1ccc(Nc2ncc3c(n2)CCN(C(=O)c2cccnc2)C3)cc1OC` [Example 16, N-(3,4-dimethoxyphenyl)-6-(pyridin-3-ylcarbonyl)-5,6,7,8-tetrahydropyrido[4,3-d]pyrimidin-2-amine]: in assay [2], the pIC50 was 6.75.
For `COc1ccc(Nc2ncc3c(n2)CCN(C(=O)c2cccnc2)C3)cc1` [Example 5, N-(4-methoxyphenyl)-6-(pyridin-3-ylcarbonyl)-5,6,7,8-tetrahydropyrido[4,3-d]pyrimidin-2-amine], the pIC50 was 8.30 in assay [1], less than 4.40 in assay [2] and 7.77 in assay [3].
As to `COc1cc(Nc2ncc3c(n2)CCN(C(=O)c2occc2C)C3)cc(OC)c1OC` [Example 11, 6-(3-methyl-2-furoyl)-N-(3,4,5-trimethoxyphenyl)-5,6,7,8-tetrahydropyrido[4,3-d]pyrimidin-2-amine], the negative logarithm of the IC50 (pIC50) in assay [1] was 8.22; in assay [3], 6.62.
With “N-phenyl-6-(pyridin-3-ylcarbonyl)-5,6,7,8-tetrahydropyrido[4,3-d]pyrimidin-2-amine [Example 2]”, the pIC50 is less than 4.00 in assay [1] and 7.05 in assay [2].
As for `COc1cc(Nc2ncc3c(n2)CCN(C(=O)c2cc(C)nn2C)C3)cc(OC)c1OC` [Example 12, 6-[(1,3-dimethyl-1H-pyrazol-5-yl)carbonyl]-N-(3,4,5-trimethoxyphenyl)-5,6,7,8-tetrahydropyrido[4,3-d]pyrimidin-2-amine], the pIC50 in assay [1] was 8.30; in assay [3], 7.72.
Regarding `COc1cccc(Nc2ncc3c(n2)CCN(C(=O)c2cccnc2)C3)c1` [Example 6, N-(3-methoxyphenyl)-6-(pyridin-3-ylcarbonyl)-5,6,7,8-tetrahydropyrido[4,3-d]pyrimidin-2-amine], the pIC50 in assay [1] was 6.35; in assay [2], less than 4.40.
